Experimental data: PubChem BioAssay AID248 (DTP/NCI, 2004)
Where “and” joins values, the source holds several entries; their conditions need not be identical. Equal values may be shown once. Inconclusive results and toxic doses are left out. Rule as the data show it: active = T/C of 150% or more; inactive = T/C below 125%.

Test system: L1210 leukemia ip in BDF1 mice, survival T/C
Test: NCI In Vivo Anticancer Drug Screen. Data for tumor model L1210 Leukemia (intraperitoneal) in B6D2F1 (BDF1) mice
Details: endpoint: mean survival time, higher = longer survival
How it was run: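 Ratio derived from survival: compound-dosed mice over vehicle-dosed mice, all bearing a transplantable tumor.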

[1] = dose: 100.0 mg/kg/injection, schedule: Q01DX001 (ip), vehicle: Klucel (hydroxypropylcellulose) (HPC)
[2] = dose: 100.0 mg/kg/injection, schedule: Q04DX003 (ip), vehicle: Klucel (hydroxypropylcellulose) (HPC)
[3] = dose: 200.0 mg/kg/injection, schedule: Q01DX001 (ip), vehicle: Klucel (hydroxypropylcellulose) (HPC)
[4] = dose: 100.0 mg/kg/injection, schedule: Q04DX003 (ip), vehicle: saline with Tween-80
[5] = dose: 400.0 mg/kg/injection, schedule: Q01DX001 (ip), vehicle: Klucel (hydroxypropylcellulose) (HPC)
[6] = dose: 100.0 mg/kg/injection, schedule: Q01DX001 (ip), vehicle: saline
[7] = dose: 100.0 mg/kg/injection, schedule: Q04DX002 (ip), vehicle: Klucel (hydroxypropylcellulose) (HPC)
[8] = dose: 50.0 mg/kg/injection, schedule: Q01DX001 (ip), vehicle: saline
[9] = dose: 200.0 mg/kg/injection, schedule: Q01DX001 (ip), vehicle: saline
[10] = dose: 200.0 mg/kg/injection, schedule: Q04DX003 (ip), vehicle: saline with Tween-80
[11] = dose: 400.0 mg/kg/injection, schedule: Q04DX003 (ip), vehicle: saline with Tween-80
[12] = dose: 50.0 mg/kg/injection, schedule: Q01DX009 (ip), vehicle: other
[13] = dose: 100.0 mg/kg/injection, schedule: Q01DX009 (ip), vehicle: other
[14] = dose: 100.0 mg/kg/injection, schedule: Q01DX001 (ip), vehicle: carboxymethylcellulose (CMC)
[15] = dose: 200.0 mg/kg/injection, schedule: Q01DX001 (ip), vehicle: carboxymethylcellulose (CMC)

Measured: T/C

COc1ccccc1N=Nc1c(O)n(-c2ccccc2C)c(=S)n(-c2ccccc2OC)c1=O
inactive: dose: 25.0 mg/kg/injection, schedule: Q04DX003 (ip), vehicle: Klucel (hydroxypropylcellulose) (HPC) 98 % of control | dose: 50.0 mg/kg/injection, schedule: Q04DX003 (ip), vehicle: Klucel (hydroxypropylcellulose) (HPC) 98 % of control | [1] 109 % of control | [2] 91 % of control | [3] 98 % of control

CN(Cc1ccccc1)c1ccc2nc(N)nc(N)c2c1
inactive: dose: 25.0 mg/kg/injection, schedule: Q04DX003 (ip), vehicle: saline with Tween-80 105 % of control | dose: 50.0 mg/kg/injection, schedule: Q04DX003 (ip), vehicle: saline with Tween-80 98 % of control | [4] 108 % of control

OCCOc1ccc(Cl)cc1
inactive: dose: 100.0 mg/kg/injection, schedule: Q01DX009 (ip), vehicle: saline with Tween-80 98 % of control | dose: 200.0 mg/kg/injection, schedule: Q01DX009 (ip), vehicle: saline with Tween-80 110 % of control | dose: 400.0 mg/kg/injection, schedule: Q01DX009 (ip), vehicle: saline with Tween-80 102 % of control

[N-]=[N+]=Nc1ccc2c(=O)c3ccccc3[nH]c2c1
inactive: dose: 100.0 mg/kg/injection, schedule: Q04DX003 (ip), vehicle: acetone 89 % of control | dose: 200.0 mg/kg/injection, schedule: Q04DX003 (ip), vehicle: acetone 98 % of control | dose: 400.0 mg/kg/injection, schedule: Q04DX003 (ip), vehicle: acetone 96 % of control

CC(=O)OC1CCC2(C)C(=CCC3C2CCC2(C)C(C(C)C(N)=O)CCC32)C1 (stereo not given)
inactive: [1] 90 % of control and 91 % of control | [3] 94 % of control and 91 % of control | [5] 87 % of control and 100 % of control

CC1(C)N=C(N)N=C(N)N1c1cccc(OCc2cccc([N+](=O)[O-])c2)c1
inactive: dose: 5.0 mg/kg/injection, schedule: Q01DX001 (ip), vehicle: saline 104 % of control | dose: 10.0 mg/kg/injection, schedule: Q01DX001 (ip), vehicle: saline 98 % of control | dose: 20.0 mg/kg/injection, schedule: Q01DX001 (ip), vehicle: saline 110 % of control | dose: 40.0 mg/kg/injection, schedule: Q01DX001 (ip), vehicle: saline 89 % of control | [6] 96 % of control

CCCOC(=O)c1ccccc1
inactive: [1] 100 % of control | [3] 97 % of control | [5] 97 % of control

Cc1ccc(-n2ccnc2)c(N=Cc2ccc(N(CCCl)CCCl)cc2C)c1
inactive: [7] 98 % of control | dose: 200.0 mg/kg/injection, schedule: Q04DX002 (ip), vehicle: Klucel (hydroxypropylcellulose) (HPC) 102 % of control | dose: 400.0 mg/kg/injection, schedule: Q04DX002 (ip), vehicle: Klucel (hydroxypropylcellulose) (HPC) 124 % of control

O=c1cc(/C=N\Nc2ccccc2)[nH]c(=O)[nH]1
inactive: [8] 93 % of control | [6] 96 % of control | [9] 93 % of control | dose: 400.0 mg/kg/injection, schedule: Q01DX001 (ip), vehicle: saline 96 % of control

COc1ccc(NCc2cnc3nc(N)nc(N)c3n2)cc1
inactive: dose: 20.0 mg/kg/injection, schedule: Q01DX009 (ip), vehicle: saline with Tween-80 110 % of control | dose: 40.0 mg/kg/injection, schedule: Q01DX009 (ip), vehicle: saline with Tween-80 108 % of control | dose: 80.0 mg/kg/injection, schedule: Q01DX009 (ip), vehicle: saline with Tween-80 106 % of control

O=C(O)CCCCCCCCC(=O)c1cc(O)ccc1O
inactive: [1] 94 % of control | [3] 94 % of control | [5] 106 % of control

CCNC(=O)N(CC)N=O
inactive: dose: 6.25 mg/kg/injection, schedule: Q01DX001 (ip), vehicle: saline 97 % of control | dose: 12.5 mg/kg/injection, schedule: Q01DX001 (ip), vehicle: saline 102 % of control | dose: 25.0 mg/kg/injection, schedule: Q01DX001 (ip), vehicle: saline 100 % of control | [8] 97 % of control | [6] 110 % of control | [9] 113 % of control | dose: 300.0 mg/kg/injection, schedule: Q01DX001 (ip), vehicle: saline 124 % of control | dose: 500.0 mg/kg/injection, schedule: Q01DX001 (ip), vehicle: saline 112 % of control

O=C(c1ccccn1)C12CC3CC(CC(C3)C1)C2
inactive: [4] 97 % of control | [10] 98 % of control | [11] 101 % of control

CCNC(C)(C)C(SSSC(c1cccs1)C(C)(C)NCC)c1cccs1 (stereo not given)
inactive: dose: 25.0 mg/kg/injection, schedule: Q01DX009 (ip), vehicle: other 108 % of control | [12] 103 % of control | [13] 97 % of control | dose: 100.0 mg/kg/injection, schedule: Q04DX003 (ip), vehicle: saline 98 % of control

CCN(CC)CCNC(Cc1ccccc1)c1ccc(OCc2ccccc2)cc1 (stereo not given)
inactive: [14] 100 % of control | [15] 96 % of control | dose: 400.0 mg/kg/injection, schedule: Q01DX001 (ip), vehicle: carboxymethylcellulose (CMC) 96 % of control

O=C(c1ccccc1)C1NC1c1ccccc1 (stereo not given)
inactive: [1] 97 % of control | [3] 92 % of control | [5] 95 % of control

CC1C=CC(c2ccccc2)C2C(=O)OC(=O)C12 (stereo not given)
inactive: dose: 50.0 mg/kg/injection, schedule: Q01DX009 (ip), vehicle: Klucel (hydroxypropylcellulose) (HPC) 111 % of control | dose: 100.0 mg/kg/injection, schedule: Q01DX009 (ip), vehicle: Klucel (hydroxypropylcellulose) (HPC) 101 % of control

CC(C)(CSCC(C)(C)C(=O)O)C(=O)O
inactive: [2] 104 % of control | dose: 200.0 mg/kg/injection, schedule: Q04DX003 (ip), vehicle: Klucel (hydroxypropylcellulose) (HPC) 94 % of control | dose: 400.0 mg/kg/injection, schedule: Q04DX003 (ip), vehicle: Klucel (hydroxypropylcellulose) (HPC) 91 % of control

Clc1ccc(-c2ncnc3c2Cc2ccccc2-3)cc1
inactive: dose: 100.0 mg/kg/injection, schedule: Q01DX009 (ip), vehicle: saline sonified 98 % of control | dose: 100.0 mg/kg/injection, schedule: Q04DX003 (ip), vehicle: saline sonified 99 % of control | dose: 200.0 mg/kg/injection, schedule: Q01DX009 (ip), vehicle: saline sonified 98 % of control | dose: 200.0 mg/kg/injection, schedule: Q04DX003 (ip), vehicle: saline sonified 99 % of control | dose: 400.0 mg/kg/injection, schedule: Q01DX009 (ip), vehicle: saline sonified 97 % of control | dose: 400.0 mg/kg/injection, schedule: Q04DX003 (ip), vehicle: saline sonified 96 % of control

CCCC/C=C/C1C=CCCC1 (stereo not given)
inactive: [12] 100 % of control | [13] 95 % of control | dose: 200.0 mg/kg/injection, schedule: Q01DX009 (ip), vehicle: other 100 % of control

COc1ccc(-c2ccns2)cc1
inactive: [14] 93 % of control | [15] 92 % of control

O=C(NCC(S)c1ccc(Cl)cc1)C(F)(F)F (stereo not given)
inactive: [10] 88 % of control | [11] 86 % of control

CC(=O)NC(C=O)CC(C=O)CO (stereo not given)
inactive: dose: 200.0 mg/kg/injection, schedule: Q04DX003 (ip), vehicle: saline 110 % of control | dose: 300.0 mg/kg/injection, schedule: Q04DX003 (ip), vehicle: saline 113 % of control

C[C@H](OC(=O)CCl)[C@@H](C)OC(=O)CCl
inactive: dose: 50.0 mg/kg/injection, schedule: Q01DX001 (sc), vehicle: carboxymethylcellulose (CMC) 109 % of control | dose: 100.0 mg/kg/injection, schedule: Q01DX001 (sc), vehicle: carboxymethylcellulose (CMC) 88 % of control

N=c1c2n[nH]nc2ncn1O
inactive: dose: 75.0 mg/kg/injection, schedule: Q01DX001 (ip), vehicle: other 92 % of control | dose: 150.0 mg/kg/injection, schedule: Q01DX001 (ip), vehicle: other 110 % of control | dose: 300.0 mg/kg/injection, schedule: Q01DX001 (ip), vehicle: other 101 % of control

COC12C3C=CC4C(C=C3)C4C1C2Br (stereo not given)
inactive: [1] 98 % of control | [3] 103 % of control | [5] 106 % of control

CCSN1C(=O)c2ccccc2C1=O
inactive: dose: 25.0 mg/kg/injection, schedule: Q04DX002 (ip), vehicle: Klucel (hydroxypropylcellulose) (HPC) 92 % of control | dose: 50.0 mg/kg/injection, schedule: Q04DX002 (ip), vehicle: Klucel (hydroxypropylcellulose) (HPC) 100 % of control | [7] 92 % of control
